The values below come from the RepoRT retention time repository.

Structures are written as SMILES.

The data set can be described thus: RP, Waters ACQUITY UPLC BEH C18, 50 × 2.1 mm, 1.7 µm, 35 °C, 0.25 mL/min, estimated dead time 0.44 min; A: water + 0.1% acetic acid, pH 3; B: acetonitrile; gradient (min/%B) 0/5 1.12/5 6.41/99.5 10.01/99.5. The conditions noted are these: stereoisomer not certain.
`NC(Cc1ccccc1)C(=O)NC(Cc1ccccc1)C(=O)O` (stereo not given) [Phe-phe]: the LC retention time is 4 min.

With `CCCCCCCCCC(=O)O` [decanoic acid], the LC retention time is 10 min. The figure for `CCCCCCCCCCCCCCCCC(=O)O` [heptadecanoic acid] is 15 min; for `O=C(O)CCCCCCCCCCCCCCC(=O)O` [hexadecanedioic acid] it is 9.37 min. The figure for `O=S(=O)([O-])Oc1c[nH]c2ccccc12.[K+]` [indoxyl sulfuric acid] is 2 min; for `COCC(NC(C)=O)C(=O)NCc1ccccc1` (stereo not given) [lacosamide] it is 4 min; for `CCCCCCCCCCCCCCCCCC(=O)OCC(O)COP(=O)([O-])OCC[N+](C)(C)C` (stereo not given) [lysoPC(18:0/0:0)] it is 11.5 min.

Consider `O=C(O)CCCCCCCC(=O)O` [nonanedioic acid], for which the LC retention time was 5 min. Under `NC(=O)CCC(NC(=O)Cc1ccccc1)C(=O)O` (stereo not given) [phenylacetylglutamine] stands 2 min; under `NC(Cc1c[nH]c2ccccc12)C(=O)O` (stereo not given) [tryptophan], 1 min.
